One may read the pKi as −log10 of the Ki, conventionally taken in molar units. A low value points to a large Ki. Usually pIC50 stands for −log10 of the IC50, conventionally taken in molar units. For orientation: koff means the rate constant with which the complex falls apart. For orientation: half-life means the time needed for the level to fall by half in the phase considered.

These results are taken from patent US20250163057A1, “DCN-1 MODULATING COMPOUNDS AND METHODS OF USE THEREOF” (Cellarity, Inc., priority 2023, published 2025).

pIC50, pKi: −log10 of the molar value. Where two headings read alike, the source gives them in different places. Where only a bound is given, the exact number is not on record here.

The target of series [1] is DCN2 (DCUND2) protein PONY domain (Homo sapiens (Human), UniProt Q6PH85). Put plainly: Measurement of Kinact/KI in the DCN2 TR-FRET Assay. Particulars: for pKi / kinact: time-dependent IC50 over 24 hrs. It is filed as binding. As to the method: A TR-FRET Assay was performed to evaluate the ability of the compounds to bind DCN-2.
The time resolved—Forster's resonance energy transfer (TR-FRET) assay was designed following the protocol established in (Scott et al., Nat Chem Biol. 2017 August; 13(8): 850-857). A recombinant form of the DCN2 (DCUND2) protein PONY domain was produced using an E. coli expression system at Viva Biotech China. The DCN2 protein was biotinylated (EZ sulfo-NHS-LC-biotin; Thermofisher) for labeling with 2.5 nM streptavidin terbium (Tb) cryptate in the reaction. The probe was changed to a non-covalent DCN1 inhibitor labeled with carboxyfluorescein (FAM; Zhou et al, Nat Commun. 2017; 8: 1150). Buffer conditions were modified to enhance protein stability by replacing TritonX with 0.05% Tween20 and increasing NaCl to 200 mM. The compounds were screened against 0.31 nM DCN1 and 40 nM FAM-labeled probe in a 40 ul reaction volume. The TR-FRET ratio between Tb-DCN1 and the FAM-labeled probe was measured in a 384-well opti-plate (Perkin Elmer) using a plate reader (BMG) at after treatment with compound (final DMSO concentration of 0.1%). The ratio was normalized to the high (DCN1 and FAM-probe) and low (DCN1 and no probe) controls for a readout of % activity (=100*(x−low)/(high−low)).
The Kinact and KI measurements were taken to allow for continuous reads over 24 hrs. Plates were read every 5 min up to 1 hr, every 15 min up to 5 hr, and every hour up to […]. Kinact and KI were calculated based on the following equations (Krippendorff B F, et al. Mechanism-based inhibition: deriving K(I) and k(inact) directly from time-dependent IC(50) values. J BiomolScreen. 2009; Mons E et al. A Comprehensive Guide for Assessing Covalent Inhibition in Enzymatic Assays Illustrated with Kinetic Simulations. CurrProtoc. 2022) where the KM of the probe against DCN2 is 21.62 nM. The Kinact and KI values could be estimated from the tight curves of the IC50 values over time.
On the technique in general: TR-FRET usually uses a lanthanide donor and a delayed reading to cut background.

The target in series [2] is T1, DCN1 (DCUND1) protein PONY domain (Homo sapiens (Human), UniProt Q96GG9). The experiment in a line: TR-FRET assay, DCN1 binding with FAM-labeled probe. Summed up:
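Tb-DCN1 PONY domain (E. coli, biotin/streptavidin-Tb); FAM-labelled non-covalent inhibitor probe; TritonX buffer, 200 mM NaCl; 5 nM DCN1 + 20 nM probe or 0.31 nM DCN1 + 900 nM total probe; 0.1% DMSO; TR-FRET read 1, 5, 24 hrs.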

Series [3] deals with Cullin-3 (CUL3) neddylation. The experiment in a line: AlphaLISA assay for Cullin-3 (CUL3) neddylation in TF 1 cells. The series is classed as cell-based. Particulars: Homo sapiens, TF-1, 3 h, 3 hours treatment. Summed up:
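Neddylated CUL3 was quantified by AlphaLISA in lysates of TF 1 cells exposed for 3 h to test compound in IMDM without supplements. Percent inhibition set between vehicle and 1 μM DI-1548 positive control; IC50 derived by Hill-equation fitting of dose-response curves.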
Background: Bead proximity is the source of the signal in Alpha formats.

Series [4] concerns the target T1, DCN1 (DCUND1) protein PONY domain. The experiment in a line: Off-rate measurement of reversible covalent molecules (jump dilution TR-FRET with Cy5 probe). The series is classed as binding. An excerpt:
A typical covalent compound is assumed to stay bound to a protein for at least the life of that protein in the cell. In reality, there is a range of how long a covalent compounds remains bound before a reverse reaction takes place. Thus, some covalent bonds can be labeled as reversible as their reverse reaction takes place in a measurable amount of time under physiological conditions. The assay capitalizes on the range of covalent binders by using a high affinity covalent binder as a probe to displace the more reversible binders in an adaptation of the jump dilution method.
In this version of the jump dilution method, the increase in covalent probe binding over time was measured through a TR-FRET reaction between the covalent probe and the biotinylated target protein.
The recombinant form of the DCN1 (DCUND1) protein PONY domain was produced using an E. coli expression system at Viva Biotech (China). The DCN1 protein was biotinylated (EZ sulfo-NHS-LC-biotin; Thermofisher) for labeling with streptavidin terbium (Tb) cryptate in the reaction. This biotinylated protein was used in two forms of the TR-FRET assay as described below.
The off-rate measurement is executed in two steps based on the jump dilution method. […] The greatest dilution allowed within the constraints of the assay was chosen. These factors allow a competitive advantage for the covalent probe to replace the test compound when that compound releases from the target protein. The actual measure is the rate of increased TR-FRET signal as the covalent probe replaces the test compound over time. […] The resulting time dependent curve of the TR-FRET signal is fit to the following equation:
Y=Y0+(Plateau−Y0)*(1−exp(−K*x))
K is the rate constant (1/unit of time). The residence time is defined as the inverse of K, the rate constant. The half-life is calculated as ln(2)/K.

Chain of DCN2 (DCUND2) protein PONY domain (Q6PH85 60-248): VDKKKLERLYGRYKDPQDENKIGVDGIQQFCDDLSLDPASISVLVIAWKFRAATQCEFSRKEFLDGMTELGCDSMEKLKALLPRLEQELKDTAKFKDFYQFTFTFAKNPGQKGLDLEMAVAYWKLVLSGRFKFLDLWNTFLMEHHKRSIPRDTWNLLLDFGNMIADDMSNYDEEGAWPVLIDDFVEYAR
T1 sequence (Q96GG9 60-248): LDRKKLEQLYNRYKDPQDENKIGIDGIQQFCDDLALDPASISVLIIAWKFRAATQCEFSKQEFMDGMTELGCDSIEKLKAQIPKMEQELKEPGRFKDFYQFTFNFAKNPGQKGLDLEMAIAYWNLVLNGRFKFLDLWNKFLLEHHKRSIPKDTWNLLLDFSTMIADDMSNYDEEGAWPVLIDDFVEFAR

Regarding `CCN1C(=O)[C@@H](NC(=O)c2cccc(C(F)(F)F)c2)[C@@H](C2CC2)c2c(C(=O)N3C[C@H](NC)C[C@H]3C#N)nn(C3CCOCC3)c21` [Compound I-425, N-((4S,5S)-3-((2S,4R)-2-cyano-4-(methylamino)pyrrolidine-1-carbonyl)-4-cyclopropyl-7-ethyl-6-oxo-1-(tetrahydro-2H-pyran-4-yl)-4,5,6,7-tetrahydro-1H-pyrazolo[3,4-b]pyridin-5-yl)-3-(trifluoromethyl)benzamide], the kinact/KI in series [1] (read-out: Kinact/KI (converted)) is 5000 M⁻¹ s⁻¹. For the same molecule, in series [1], the pKi is 7.67. Besides, the kinact in series [1] (read-out: Kinact (converted)) was 0.000115 s⁻¹. The pIC50 is not below 6.70 in series [2] (24 hr after treatment with compound, read-out: TR FRET IC50 24 hr); not below 6.70 in series [2] (read-out: TR FRET IC50 1 hr, 1 hr after treatment with compound); not below 7.00 in series [3]. Moreover, in series [4] (binding mode category from off-rate assay), the Category result is recorded as “fast reversible”. This molecule registered a residence time in series [4] (inverse of rate constant K, jump dilution TR-FRET) of 76 min. Moreover, in series [4] (jump dilution, Cy5 covalent probe 150 nM, TR-FRET), the koff is 0.000219 s⁻¹. This molecule gave a half-life in series [4] (ln(2)/K, jump dilution TR-FRET) of 52.69 min.
`C=C(CN1CCOCC1)C(=O)NC[C@@H](NC(=O)[C@H](Cc1nc2ccc(C(C)C)cc2s1)NC(=O)CC)C1CCCCC1` [DI-1548, reference compound]: in series [1], the kinact/KI was found to be 0.9971 nM − 1 * min − 1, the pKi was 9.45 and the kinact was 0.3536 min^ − 1.
